Assay results: US11660293B2, “Substituted 2-azabicyclo[3.1.1]heptane and 2-azabicyclo[3.2.1]octane derivatives as orexin receptor antagonists” (Chronos Therapeutics Limited, priority 2017, dated 2023)
Like-named read-outs stand apart in the source and are kept apart here.

Tests used:
[1] = biological target: human Orexin type 1 receptors (Homo sapiens (Human), UniProt O43613); assay: Scintillation Proximity Assay (SPA) binding assay, [3H]SB-674042 displacement, CHO-hOX1 membranes
Procedure: Scintillation Proximity Assay (SPA) Binding Assays CHO cells stably transfected with human Orexin type 1 receptors (CHO-hOX1) or HEK-293 cells transiently transfected with human Orexin type 2 receptors (HEK-hOX2) were collected after 16 h induction with 5 mM sodium butyrate. […] The binding was performed in a final volume of 200 μl. 100 μl of hOX1 or hOX2 beads-membranes suspension were added to 100 μl of [^3H]SB-674042 or [^3H]EMPA solutions (radioligand concentration 2 nM final in the assay), into the 96-well Isoplates containing the 2 μl/well of compounds to be tested. Nonspecific binding was measured in the presence of 1 μM Almorexant. Assay plates were then incubated at room temperature for 3 h before being counted in a Microbeta scintillation counter (PerkinElmer). Data were analysed by non-linear regression analysis using XLfit Software.

[2] = biological target: human Orexin type 2 receptors (Homo sapiens (Human), UniProt O43614); assay: Scintillation Proximity Assay (SPA) binding assay, [3H]EMPA displacement, HEK-hOX2 membranes; details: for Ki: read-out: OX2 pKi (SPA binding) (converted)
Procedure: Scintillation Proximity Assay (SPA) Binding Assays
CHO cells stably transfected with human Orexin type 1 receptors (CHO-hOX1) or HEK-293 cells transiently transfected with human Orexin type 2 receptors (HEK-hOX2) were collected after 16 h induction with 5 mM sodium butyrate. The cell pellets were re-suspended, homogenized in 15 mM Tris/HCl pH=7.5, 1 mM EGTA, 0.3 mM EDTA, 2 mM MgCl2, protease inhibitors and centrifuged at 40,000 g (20 min, 4° C.). After re-suspension, homogenization and centrifugation as above, the final pellets were re-suspended in 75 mM Tris/HCl pH=7.5, 1 mM EGTA, 0.3 mM EDTA, 12.5 mM MgCl2, 250 mM Sucrose, protease inhibitors, divided into aliquots and frozen down at −80° C.
CHO-hOX1 cell membranes (6 μg ml^−1) or HEK-hOX2 membranes (8 μg ml^−1) were pre-coupled with 1.0 mg ml^−1 of Wheatgerm Agglutinin-coated Yttrium Silicate (YSi-WGA) SPA beads (Perkin Elmer) in buffer containing 25 mM HEPES pH=7.4, 1 mM CaCl2), 5 mM MgCl2, 0.01% (w/v) BSA, 0.02% (w/v) Pluronic F-127 by shaking at room temperature for 2.5-3 h.
The binding was performed in a final volume of 200 μl. 100 μl of hOX1 or hOX2 beads-membranes suspension were added to 100 μl of [^3H]SB-674042 or [^3H]EMPA solutions (radioligand concentration 2 nM final in the assay), into the 96-well Isoplates containing the 2 μl/well of compounds to be tested. Nonspecific binding was measured in the presence of 1 μM Almorexant. Assay plates were then incubated at room temperature for 3 h before being counted in a Microbeta scintillation counter (PerkinElmer).
Data were analysed by non-linear regression analysis using XLfit Software.

Sequence of human Orexin type 1 receptors (O43613 whole entry): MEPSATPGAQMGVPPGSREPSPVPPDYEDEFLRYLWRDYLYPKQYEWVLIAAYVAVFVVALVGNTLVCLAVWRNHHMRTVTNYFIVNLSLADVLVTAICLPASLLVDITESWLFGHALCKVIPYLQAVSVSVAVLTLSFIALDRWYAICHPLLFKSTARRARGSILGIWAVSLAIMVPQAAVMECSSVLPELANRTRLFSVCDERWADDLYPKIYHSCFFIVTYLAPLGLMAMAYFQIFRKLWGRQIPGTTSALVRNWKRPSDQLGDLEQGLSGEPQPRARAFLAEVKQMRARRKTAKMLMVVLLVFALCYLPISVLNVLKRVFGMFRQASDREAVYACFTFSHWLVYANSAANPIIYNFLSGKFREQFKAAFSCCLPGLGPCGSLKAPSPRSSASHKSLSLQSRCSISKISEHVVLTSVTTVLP
Sequence of human Orexin type 2 receptors (O43614 whole entry): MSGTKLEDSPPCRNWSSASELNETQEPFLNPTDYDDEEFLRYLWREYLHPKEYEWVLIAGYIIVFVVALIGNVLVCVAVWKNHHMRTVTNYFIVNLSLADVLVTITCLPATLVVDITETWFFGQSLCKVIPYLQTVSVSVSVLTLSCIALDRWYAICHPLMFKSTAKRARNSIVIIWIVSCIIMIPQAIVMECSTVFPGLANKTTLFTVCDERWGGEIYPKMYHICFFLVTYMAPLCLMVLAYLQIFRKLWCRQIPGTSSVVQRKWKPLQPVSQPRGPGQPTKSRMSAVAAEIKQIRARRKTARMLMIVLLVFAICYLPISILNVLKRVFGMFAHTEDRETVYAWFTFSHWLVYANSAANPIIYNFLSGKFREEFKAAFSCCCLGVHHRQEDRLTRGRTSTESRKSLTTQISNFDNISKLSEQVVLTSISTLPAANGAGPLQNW

| Compound | OX1 pKi (SPA binding) ([1]; Table 2, [3H]SB-674042 2 nM) | OX2 pKi (SPA binding) ([2]; Table 2, [3H]EMPA 2 nM) | further results |
| --- | --- | --- | --- |
| Cc1ccc(-c2ncccn2)c(C(=O)N2C3CC(C3)[C@@H](C)C2CNc2cnc(C(F)(F)F)cn2)n1 (single isomer, unassigned) [Example 249, N-{[(3S,4R) or (3R,4S)-4-methyl-2-[6-methyl-3-(pyrimidin-2-yl)pyridine-2-carbonyl]-2-azabicyclo[3.1.1]heptan-3-yl]methyl}-5-(trifluoromethyl)pyrazin-2-amine] | 5.12 | – | Ki ([2]; Table 2, [3H]EMPA 2 nM): > 31600 nM |
| Cc1nc(C(=O)N2C(CNc3cc4ccccc4cn3)CC3CC2C3)c(-c2ccccc2)s1 (centres unmarked) [Example 59, N-[[2-(2-methyl-5-phenyl-1,3-thiazole-4-carbonyl)-2-azabicyclo[3.1.1]heptan-3-yl]methyl}isoquinolin-3-amine] | – | – | OX1 pKi (SPA binding) ([1]; Table 1, [3H]SB-674042 2 nM): 8.1; OX2 pKi (SPA binding) ([2]; Table 1, [3H]EMPA 2 nM): 7.46 |
| Cc1ccc(-n2nccn2)c(C(=O)N2C3CC(C3)[C@@H](C)C2COc2ccc(F)cn2)n1 (mixture of isomers) [Example 130, cis-3-{[(5-fluoropyridin-2-yl)oxy]methyl}-4-methyl-2-[6-methyl-3-(2H-1,2,3-triazol-2-yl)pyridine-2-carbonyl]-2-azabicyclo[3.1.1]heptane] | 6.9 | 6.08 | – |
| CCOc1ccc(C)nc1C(=O)N1C2CC(C2)[C@@H](C)C1CNc1nc2ccc(F)cc2s1 (mixture of isomers) [Example 174, cis-N-{[2-(3-ethoxy-6-methylpyridine-2-carbonyl)-4-methyl-2-azabicyclo[3.1.1]heptan-3-yl]methyl}-6-fluoro-1,3-benzothiazol-2-amine] | 8.82 | 7.06 | – |
| Cc1nc(C(=O)N2C3CC(C3)[C@@H](C)C2COc2ccc(F)cc2)c(-n2nccn2)s1 (stereo partly drawn) [Example 140, cis-3-[(4-flurophenoxy)methyl]-4-methyl-2-[2-methyl-5-(2H-1,2,3-triazol-2-yl)-1,3-thiazole-4-carbonyl]-2-azabicyclo[3.1.1]heptane] | 7.49 | 6.22 | – |
| Cc1ccc(-n2nccn2)c(C(=O)N2C3CC(C3)[C@@H](C)C2CNc2cccc(C(F)(F)F)n2)n1 (mixture of isomers) [Example 197, cis-N-({4-methyl-2-[6-methyl-3-(2H-1,2,3-triazol-2-yl)pyridine-2-carbonyl]-2-azabicyclo[3.1.1]heptan-3-yl}methyl)-6-(trifluoromethyl)pyridin-2-amine] | 6.99 | 5.76 | – |
| C[C@@H]1C2CC(C2)N(C(=O)c2cc(F)ccc2-n2nccn2)C1CNc1cnc2ccccc2n1 (mixture of isomers) [Example 187, cis-N-({2-[5-fluoro-2-(2H-1,2,3-triazol-2-yl)benzoyl]-4-methyl-2-azabicyclo[3.1.1]heptan-3-yl}methyl)quinoxalin-2-amine] | 8.19 | 5.63 | – |
| Cc1ccc(-n2nccn2)c(C(=O)N2C3CC(C3)[C@@H](C)C2CNc2cnc3ccccc3n2)n1 (single isomer, unassigned) [Example 159, N-{[(3S,4R) or (3R,4S)-4-methyl-2-[6-methyl-3-(2H-1,2,3-triazol-2-yl)pyridine-2-carbonyl]-2-azabicyclo[3.1.1]heptan-3-yl]methyl}quinoxalin-2-amine] | 6.84 | 4.59 | – |
| C[C@@H]1C2CC(C2)N(C(=O)c2cc(Cl)ccc2-n2nccn2)C1CNc1nc2cccnc2o1 (mixture of isomers) [Example 242, cis-N-({2-[5-chloro-2-(2H-1,2,3-triazol-2-yl)benzoyl]-4-methyl-2-azabicyclo[3.1.1]heptan-3-yl}methyl)-[1,3]oxazolo[5,4-b]pyridin-2-amine] | 8.1 | 5.14 | – |
| Cc1ccc(-c2ncccn2)c(C(=O)N2C3CC(C3)[C@H](C)C2COc2ccc(Cl)cn2)n1 (mixture of isomers) [Example 118, trans-3-{[(5-chloropyridin-2-yl)oxy]methyl}-4-methyl-2-[6-methyl-3-(pyrimidin-2-yl)pyridine-2-carbonyl]-2-azabicyclo[3.1.1]heptane] | 7.39 | 5.75 | – |
| Cc1ccc(-c2nccs2)c(C(=O)N2C3CC(C3)[C@H](C)C2COc2ccc(F)cc2)n1 (single isomer, unassigned) [Example 108, (3S,4S or 3R,4R)-3-[(4-fluorophenoxy)methyl]-4-methyl-2-[6-methyl-3-(1,3-thiazol-2-yl)pyridine-2-carbonyl]-2-azabicyclo[3.1.1]heptane] | – | – | Ki ([1]; Table 1, [3H]SB-674042 2 nM, read-out: OX1 pKi (SPA binding) (converted)): 3.24 nM; Ki ([2]; Table 1, [3H]EMPA 2 nM): 407 nM |
| C[C@@H]1C2CC(C2)N(C(=O)c2cc(Cl)ccc2-n2nccn2)C1CNc1nc2cccnc2s1 (mixture of isomers) [Example 234, cis-N-({2-[5-chloro-2-(2H-1,2,3-triazol-2-yl)benzoyl]-4-methyl-2-azabicyclo[3.1.1]heptan-3-yl}methyl)-[1,3]thiazolo[5,4-b]pyridin-2-amine] | 8.45 | 5.46 | – |
| Cc1ccc(-n2cccn2)c(C(=O)N2C3CC(C3)[C@H](C)C2COc2ccc(F)cc2)n1 (mixture of isomers) [Example 122, trans-3-[(4-fluorophenoxy)methyl]-4-methyl-2-[6-methyl-3-(1H-pyrazol-1-yl)pyridine-2-carbonyl]-2-azabicyclo[3.1.1]heptane] | 7.22 | 5.4 | – |
| Cc1ccc(-n2ncc(C)n2)c(C(=O)N2C3CC(C3)[C@@H](C)C2COc2ccc(F)cc2)n1 (mixture of isomers) [Example 144, cis-3-[(4-fluorophenoxy)methyl]-4-methyl-2-[6-methyl-3-(4-methyl-2H-1,2,3-triazol-2-yl)pyridine-2-carbonyl]-2-azabicyclo[3.1.1]heptane] | 7.96 | 6.83 | – |
| Cc1ccc(-n2nccn2)c(C(=O)N2C3CC(C3)[C@H](C)C2COc2ccc(Cl)cn2)n1 (stereo partly drawn) [Example 102, trans-3-{[(5-chloropyridin-2-yl)oxy]methyl}-4-methyl-2-[6-methyl-3-(2H-1,2,3-triazol-2-yl)pryidine-2-carbonyl]-2-azabicyclo[3.1.1]heptane] | – | – | OX1 pKi (SPA binding) ([1]; Table 1, [3H]SB-674042 2 nM): 7.23; OX2 pKi (SPA binding) ([2]; Table 1, [3H]EMPA 2 nM): 5.71 |
| Cc1ccc(-n2nccn2)c(C(=O)N2C3CC(C3)[C@@H](C)C2CNc2nc3ccc(F)cc3s2)n1 (mixture of isomers) [Example 152, cis-6-fluoro-N-({4-methyl-2-[6-methyl-3-(2H-1,2,3-triazol-2-yl)pyridine-2-carbonyl]-2-azabicyclo[3.1.1]heptan-3-yl}methyl)-1,3-benzothiazol-2-amine] | 8.68 | 6.1 | – |
| C[C@@H]1C2CC(C2)N(C(=O)c2cc(Cl)ccc2-n2nccn2)C1CNc1ncc(C(F)(F)F)cn1 (stereo partly drawn) [Example 239, cis-N-({2-[5-chloro-2-(2H-1,2,3-triazol-2-yl)benzoyl]-4-methyl-2-azabicyclo[3.1.1]heptan-3-yl}methyl)-5-(trifluoromethyl)pyrimidin-2-amine] | 8.04 | 5.51 | – |
| C[C@@H]1C2CC(C2)N(C(=O)c2cc(C#N)ccc2-n2nccn2)C1CNc1nc2ccc(F)cc2s1 (stereo partly drawn) [Example 175, cis-3-(3-{[(6-fluoro-1,3-benzothiazol-2-yl)amino]methyl}-4-methyl-2-azabicyclo[3.1.1]heptane-2-carbonyl)-4-(2H-1,2,3-triazol-2-yl)benzonitrile] | 8.41 | 6.02 | – |
| C[C@@H]1C2CC(C2)N(C(=O)c2ccc(Cl)cc2-n2nccn2)C1CNc1cnc(C(F)(F)F)cn1 (mixture of isomers) [Example 246, cis-N-({2-[4-chloro-2-(2H-1,2,3-triazol-2-yl)benzoyl]-4-methyl-2-azabicyclo[3.1.1]heptan-3-yl}methyl)-5-(trifluoromethyl)pyrazin-2-amine] | 7.57 | 5.61 | – |
